Consider 16 compounds from ChEMBL document CHEMBL4382293, “Triazolopyrimidines and Imidazopyridines: Structure-Activity Relationships and in Vivo Efficacy for Trypanosomiasis” (ACS Med Chem Lett, 2019).

What all share (format): ADME, organism-based
Series [1] in a line: AUC in Swiss Webster mouse at 50 mg/kg, po administered as single dose via gavage by LC/MS analysis. The settings on record: in vivo.
Series [2] can be described thus: Ratio of drug level in brain to plasma in Swiss Webster mouse at 5 mg/kg, ip measured after 1 hr by LC/MS analysis. The settings on record: for Kp at 1 h: Swiss Webster, brain/plasma, read-out: BPR.
The nature of series [3]: Cmax in Swiss Webster mouse at 50 mg/kg, po administered as single dose via gavage by LC/MS analysis. More on the design: dose 50 mg/kg, route oral. The settings on record: in vivo.
Series [4] can be described thus: Oral bioavailability in Swiss Webster mouse at 50 mg/kg administered as single dose via gavage by LC/MS analysis. To be noted: in vivo.
Series [5] in a line: Volume of distribution at steady state in Swiss Webster mouse at […], iv administered as single dose by LC/MS analysis. To be noted: in vivo, read-out: Vdss.
The nature of series [6]: Drug level in Swiss Webster mouse plasma at 5 mg/kg, ip measured after 1 hr by LC/MS analysis.
The nature of series [7]: Drug level in Swiss Webster mouse brain at 5 mg/kg, ip measured after 1 hr by LC/MS analysis. To be noted: read-out: Drug uptake.

In turn, `O=C(Nc1ccc(F)c(-c2nc3cc(-c4ccccc4)cnc3[nH]2)c1)N1CCCC1` registered an area under the curve (AUC) in series [1] of 1240 µM·min. In series [2] (brain, 1 h), the BPR was found to be 0.04.
`O=C(Nc1ccc(F)c(-c2nc3ncc(-c4ccc(F)cc4)cc3[nH]2)c1)N1CCCC1` came in with an AUC in series [1] of 1460 µM·min. The Kp at 1 h in series [2] amounted to 0.04. The compound further yielded a Cmax in series [3] of 6.27 µM.
`O=C(Nc1ccc(F)c(-c2nc3ncc(-c4ccc(O)cc4)cc3[nH]2)c1)N1CCCC1` yielded an AUC in series [1] of 19.7 µM·min. The compound also registered a Cmax in series [3] of 0.13 µM.
Compound `O=C(Nc1ccc(F)c(-c2nc3ncc(-c4ccccn4)cn3n2)c1)N1CCC(F)(F)C1` yielded a bioavailability in series [4] of 70%. The AUC in series [1] was found to be 15700 µM·min. In series [2], the Kp at 1 h stood at 0.02. In series [3], this compound returned a Cmax of 31.1 µM. Further, in series [5], the Vd lay within 0.7 to 1.1 L/kg.
The compound `O=C(Nc1ccc(F)c(-c2nc3ncc(-c4cncc(F)c4)cc3[nH]2)c1)N1CCCC1` showed an AUC in series [1] of 222 µM·min. In series [3], this compound had a Cmax of 1.07 µM.
Compound `O=C(Nc1ccc(F)c(-c2nc3ncc(-c4ccc(F)cc4F)cc3[nH]2)c1)N1CCCC1` had an AUC in series [1] of 2140 µM·min. Further, in series [2], the Kp at 1 h turned out to be 0.01. The Cmax in series [3] was determined as 9.5 µM.
On to `O=C(Nc1ccc(F)c(-c2nc3ncc(-c4cccc(F)c4F)cc3[nH]2)c1)N1CCCC1`, for which the AUC in series [1] was 651 µM·min. Moreover, the peak concentration (Cmax) in series [3] was 1.83 µM.
For `O=C(Nc1ccc(F)c(-c2nc3ncc(-c4cccc(F)c4)cc3[nH]2)c1)N1CCCC1`, in that order: 2150 µM·min and 7 µM.
The matching figures for `O=C(Nc1ccc(F)c(-c2nc3ncc(-c4cccnc4F)cc3[nH]2)c1)N1CCCC1`: 4410 µM·min and 25.6 µM.
`Cc1nc(C)c(C(=O)Nc2ccc(F)c(-c3nc4ncc(-c5ccccc5Cl)cn4n3)c2)o1`: the bioavailability in series [4] came to 70%. Besides, the figures for the concentration at 1 h in series [6] and in series [7] were 8.8 µM and 1900 nM, respectively. Also, the AUC in series [1] turned out to be 40000 µM·min. Moreover, the Kp at 1 h in series [2] was 0.23. The compound also returned a Cmax in series [3] of 39.3 µM. In addition, the Vd in series [5] lay in the range of 0.7 to 1.1 L/kg.
`O=C(Nc1ccc(F)c(-c2nc3ncc(-c4ccccc4F)cc3[nH]2)c1)N1CCCC1` showed an exposure (AUC) in series [1] of 696 µM·min. The Kp at 1 h in series [2] is 0.02. In series [3], this compound had a Cmax of 2.23 µM.
For `O=C(Nc1ccc(F)c(-c2nc3ncc(-c4cc(F)cc(F)c4)cc3[nH]2)c1)N1CCCC1`, the area under the curve (AUC) in series [1] came to 1290 µM·min. In series [3], this compound yielded a Cmax of 4.8 µM.
In turn, `Cc1nc(C)c(C(=O)Nc2ccc(F)c(-c3nc4ncc(-c5ccccn5)cn4n3)c2)o1` yielded an exposure (AUC) in series [1] of 45900 µM·min. The Kp at 1 h in series [2] turned out to be 0.12. The compound further had a Cmax in series [3] of 54.4 µM.
`O=C(Nc1ccc(F)c(-c2nc3ncc(-c4cc(F)ccc4F)cc3[nH]2)c1)N1CCCC1` had an AUC in series [1] of 771 µM·min. Also, the Cmax in series [3] amounted to 2.8 µM.
Turning to `O=C(Nc1ccc(F)c(-c2nc3ncc(-c4ccc(F)c(F)c4)cc3[nH]2)c1)N1CCCC1`, the AUC in series [1] stood at 1650 µM·min. In addition, the Kp at 1 h in series [2] turned out to be 0.02. For the same compound, the Cmax in series [3] was found to be 6.67 µM.
For `O=C(Nc1ccc(F)c(-c2nc3ncc(C(F)(F)F)cc3[nH]2)c1)N1CCCC1`, in that order: 74.6 µM·min, 0.08 and 1.08 µM.
